# Experimental data taken from PubChem BioAssay AID256 (DTP/NCI, 2004).
# “And” between values parts separate entries of the source, which are not always exact repeats. Equal values may be shown once. Inconclusive results and toxic doses are left out.
# Tested on: CD2F1 mice, L1210 leukemia ip, survival T/C
# Assay: NCI In Vivo Anticancer Drug Screen. Data for tumor model L1210 Leukemia (intraperitoneal) in CD2F1 (CDF1) mice
# Details: higher = longer survival
# Method in brief: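 Vehicle-treated tumor-bearing mice served as controls (C) for compound-treated mice (T). Reported figure is T divided by C.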
# [1] = endpoint: mean survival time, dose: 100.0 mg/kg/injection, schedule: Q04DX003 (ip), vehicle: saline with Tween-80
# [2] = endpoint: mean survival time, dose: 200.0 mg/kg/injection, schedule: Q04DX003 (ip), vehicle: saline with Tween-80
# [3] = endpoint: mean survival time, dose: 400.0 mg/kg/injection, schedule: Q04DX003 (ip), vehicle: saline with Tween-80
# [4] = endpoint: mean survival time, dose: 100.0 mg/kg/injection, schedule: Q04DX003 (ip), vehicle: saline
# [5] = endpoint: mean survival time, dose: 200.0 mg/kg/injection, schedule: Q04DX003 (ip), vehicle: saline
# [6] = endpoint: mean survival time, dose: 100.0 mg/kg/injection, schedule: Q01DX009 (ip), vehicle: saline with Tween-80
# [7] = endpoint: mean survival time, dose: 200.0 mg/kg/injection, schedule: Q01DX009 (ip), vehicle: saline with Tween-80
# [8] = endpoint: mean survival time, dose: 100.0 mg/kg/injection, schedule: Q01DX001 (ip), vehicle: saline with Tween-80
# [9] = endpoint: mean survival time, dose: 200.0 mg/kg/injection, schedule: Q01DX001 (ip), vehicle: saline with Tween-80
# [10] = endpoint: mean survival time, dose: 400.0 mg/kg/injection, schedule: Q01DX001 (ip), vehicle: saline with Tween-80
# [11] = endpoint: mean survival time, dose: 25.0 mg/kg/injection, schedule: Q04DX002 (ip), vehicle: saline with Tween-80
compound,measurement,setting,value
O=C(OCC(OC(=O)c1ccccc1)C1OC(c2ccccc2)OC1C(COC(=O)c1ccccc1)OC(=O)c1ccccc1)c1ccccc1 (centres undefined),T/C,[1],97 % of control
same,T/C,[2],101 % of control
same,T/C,[3],97 % of control
CC12CS(=O)(=O)CC1O2 (centres undefined),T/C,[1],101 % of control
same,T/C,[2],96 % of control
same,T/C,[3],101 % of control
Cc1cccc(Br)[n+]1[O-],T/C,[4],92 % of control
same,T/C,[5],101 % of control
COc1cc2c(c(OC)c1OC)-c1ccc(OC)c(=O)cc1[C@@H](NC(=O)CF)CC2,T/C,"endpoint: mean survival time, dose: 0.37 mg/kg/injection, schedule: Q01DX009 (ip), vehicle: saline",109 % of control
C[C@]12C=CC(=O)C=C1CC[C@@H]1[C@@H]2CC[C@]2(C)OC(=O)CC[C@@H]12,T/C,"endpoint: median survival time, dose: 125.0 mg/kg/injection, schedule: Q01DX009 (sc), vehicle: steriod suspending solution",97 % of control
same,T/C,"endpoint: median survival time, dose: 125.0 mg/kg/injection, schedule: Q## X009 (sc), vehicle: steriod suspending solution",97 % of control
same,T/C,"endpoint: median survival time, dose: 250.0 mg/kg/injection, schedule: Q01DX009 (sc), vehicle: steriod suspending solution",104 % of control
same,T/C,"endpoint: median survival time, dose: 250.0 mg/kg/injection, schedule: Q## X009 (sc), vehicle: steriod suspending solution",104 % of control
same,T/C,"endpoint: median survival time, dose: 500.0 mg/kg/injection, schedule: Q01DX009 (sc), vehicle: steriod suspending solution",102 % of control
same,T/C,"endpoint: median survival time, dose: 500.0 mg/kg/injection, schedule: Q## X009 (sc), vehicle: steriod suspending solution",102 % of control
same,T/C,"endpoint: median survival time, dose: 1000.0 mg/kg/injection, schedule: Q01DX009 (sc), vehicle: steriod suspending solution",102 % of control
same,T/C,"endpoint: median survival time, dose: 1000.0 mg/kg/injection, schedule: Q## X009 (sc), vehicle: steriod suspending solution",102 % of control
CC(=O)NC1CC(n2cnc3c(=O)[nH]c(N)nc32)OC1C(C)O (centres undefined),T/C,"endpoint: median survival time, dose: 12.5 mg/kg/injection, schedule: Q01DX005 (ip), vehicle: distilled water + Tween-80",101 % of control
same,T/C,"endpoint: median survival time, dose: 25.0 mg/kg/injection, schedule: Q01DX005 (ip), vehicle: distilled water + Tween-80",102 % of control
same,T/C,"endpoint: median survival time, dose: 50.0 mg/kg/injection, schedule: Q01DX005 (ip), vehicle: distilled water + Tween-80",100 % of control
same,T/C,"endpoint: median survival time, dose: 100.0 mg/kg/injection, schedule: Q01DX005 (ip), vehicle: distilled water + Tween-80",89 % of control
S=C(Nc1ccccc1)N1CCCC1,T/C,"endpoint: mean survival time, dose: 50.0 mg/kg/injection, schedule: Q01DX009 (ip), vehicle: saline with Tween-80",96 % of control
same,T/C,[6],100 % of control
same,T/C,[7],102 % of control
CCc1ccccc1N1CCN(C(=O)c2cc(OC)c(OC)c(OC)c2)CC1,T/C,"endpoint: mean survival time, dose: 100.0 mg/kg/injection, schedule: Q01DX009 (ip), vehicle: acetone",118 % of control
same,T/C,"endpoint: mean survival time, dose: 150.0 mg/kg/injection, schedule: Q01DX009 (ip), vehicle: acetone",124 % of control
same,T/C,"endpoint: mean survival time, dose: 225.0 mg/kg/injection, schedule: Q01DX009 (ip), vehicle: acetone",90 % of control
CNCc1c[nH]c(=O)[nH]c1=O,T/C,[1],102 % of control
same,T/C,[2],98 % of control
same,T/C,[3],94 % of control
CC(Br)C1(c2ccccc2)OCCO1 (centres undefined),T/C,[8],100 % of control
same,T/C,[6],114 % of control
same,T/C,[1],104 % of control
same,T/C,[9],94 % of control
same,T/C,[2],111 % of control
same,T/C,[10],102 % of control
same,T/C,[3],101 % of control
Cc1ccc(S(=O)C(c2ccccc2)C(c2ccccc2)C(C)O)cc1 (centres undefined),T/C,[1],90 % of control
same,T/C,[2],94 % of control
same,T/C,[3],90 % of control
CC(CC(=O)c1ccccc1)=Nc1ccccc1.CC(CC(=O)c1ccccc1)=Nc1ccccc1.[O]=[V],T/C,"endpoint: mean survival time, dose: 50.0 mg/kg/injection, schedule: Q01DX001 (ip), vehicle: Klucel (hydroxypropylcellulose) (HPC)",96 % of control
same,T/C,"endpoint: mean survival time, dose: 100.0 mg/kg/injection, schedule: Q01DX001 (ip), vehicle: Klucel (hydroxypropylcellulose) (HPC)",88 % of control
same,T/C,"endpoint: mean survival time, dose: 200.0 mg/kg/injection, schedule: Q01DX001 (ip), vehicle: Klucel (hydroxypropylcellulose) (HPC)",94 % of control
same,T/C,"endpoint: mean survival time, dose: 400.0 mg/kg/injection, schedule: Q01DX001 (ip), vehicle: Klucel (hydroxypropylcellulose) (HPC)",93 % of control
same,T/C,"endpoint: mean survival time, dose: 800.0 mg/kg/injection, schedule: Q01DX001 (ip), vehicle: Klucel (hydroxypropylcellulose) (HPC)",90 % of control
C=C(C)CCNc1ncnc2nc[nH]c12,T/C,[1],97 % of control
same,T/C,[2],101 % of control
same,T/C,[3],95 % of control
[Br][Pt+2][Br].[NH-]C(CC([NH-])c1ccccc1)c1ccccc1 (centres undefined),T/C,"endpoint: mean survival time, dose: 12.5 mg/kg/injection, schedule: Q04DX003 (ip), vehicle: saline with Tween-80",101 % of control and 107 % of control and 112 % of control
same,T/C,"endpoint: mean survival time, dose: 25.0 mg/kg/injection, schedule: Q04DX003 (ip), vehicle: saline with Tween-80",102 % of control and 89 % of control
same,T/C,"endpoint: mean survival time, dose: 50.0 mg/kg/injection, schedule: Q04DX003 (ip), vehicle: saline with Tween-80",91 % of control
O=C(CCBr)NCNC(=O)CCBr,T/C,[7],152 % of control
same,T/C,"endpoint: mean survival time, dose: 400.0 mg/kg/injection, schedule: Q01DX009 (ip), vehicle: saline with Tween-80",101 % of control
Cc1ccc(C(=O)C2OC2c2ccccc2)cc1 (centres undefined),T/C,[8],94 % of control
same,T/C,[9],100 % of control
same,T/C,[10],94 % of control
NCC(OCC(=O)O)C(Cl)(Cl)Cl (centres undefined),T/C,[1],101 % of control
same,T/C,[2],96 % of control
same,T/C,[3],101 % of control
O=C1c2ccccc2C(=O)c2c(O)c3c(c(O)c21)CCC(O)C3 (centres undefined),T/C,"endpoint: mean survival time, dose: 12.5 mg/kg/injection, schedule: Q01DX009 (ip), vehicle: other",102 % of control
same,T/C,"endpoint: mean survival time, dose: 25.0 mg/kg/injection, schedule: Q01DX009 (ip), vehicle: other",107 % of control
same,T/C,"endpoint: mean survival time, dose: 50.0 mg/kg/injection, schedule: Q01DX009 (ip), vehicle: other",96 % of control
same,T/C,"endpoint: mean survival time, dose: 100.0 mg/kg/injection, schedule: Q01DX009 (ip), vehicle: other",91 % of control
same,T/C,"endpoint: mean survival time, dose: 200.0 mg/kg/injection, schedule: Q01DX009 (ip), vehicle: other",93 % of control
NNC(=S)Nc1ccccc1,T/C,"endpoint: mean survival time, dose: 20.0 mg/kg/injection, schedule: Q04DX003 (ip), vehicle: saline with Tween-80",98 % of control
CCC(=O)NC(=O)C(=O)NC(=O)CC,T/C,[11],102 % of control
same,T/C,"endpoint: mean survival time, dose: 50.0 mg/kg/injection, schedule: Q04DX002 (ip), vehicle: saline with Tween-80",95 % of control
same,T/C,"endpoint: mean survival time, dose: 100.0 mg/kg/injection, schedule: Q04DX002 (ip), vehicle: saline with Tween-80",91 % of control
same,T/C,"endpoint: mean survival time, dose: 200.0 mg/kg/injection, schedule: Q04DX002 (ip), vehicle: saline with Tween-80",109 % of control
CC[C@]1(O)C[C@H]2CN(CCc3c([nH]c4ccccc34)[C@@](C(=O)OC)(c3cc4c(cc3OC)N(C)[C@H]3[C@@](O)(C(=O)OC)[C@H](OC(C)=O)[C@]5(CC)C=CCN6CC[C@]43[C@@H]65)C2)C1,T/C,"endpoint: mean survival time, dose: 0.03 mg/kg/injection, schedule: Q01DX009 (ip), vehicle: water",92 % of control
same,T/C,"endpoint: mean survival time, dose: 0.06 mg/kg/injection, schedule: Q01DX009 (ip), vehicle: water",97 % of control
same,T/C,"endpoint: mean survival time, dose: 0.13 mg/kg/injection, schedule: Q01DX009 (ip), vehicle: water",95 % of control
same,T/C,"endpoint: mean survival time, dose: 0.25 mg/kg/injection, schedule: Q01DX007 (ip), vehicle: water",120 % of control
same,T/C,"endpoint: mean survival time, dose: 0.5 mg/kg/injection, schedule: Q04DX003 (ip), vehicle: water",120 % of control
same,T/C,"endpoint: mean survival time, dose: 1.0 mg/kg/injection, schedule: Q01DX007 (ip), vehicle: water",91 % of control
same,T/C,"endpoint: mean survival time, dose: 1.0 mg/kg/injection, schedule: Q01DX009 (ip), vehicle: saline",90 % of control and 91 % of control
same,T/C,"endpoint: mean survival time, dose: 1.0 mg/kg/injection, schedule: Q01DX009 (ip), vehicle: water",86 % of control
same,T/C,"endpoint: mean survival time, dose: 1.0 mg/kg/injection, schedule: Q04DX003 (ip), vehicle: water",120 % of control
same,T/C,"endpoint: median survival time, dose: 0.83 mg/kg/injection, schedule: Q01DX009 (ip), vehicle: saline",110 % of control
same,T/C,"endpoint: median survival time, dose: 1000.0 micrograms/kg/injection, schedule: Q01DX009 (ip), vehicle: saline",98 % of control
NC(N)=NC(N)=Nc1ccc([As](=O)(O)O)c(O)c1,T/C,"endpoint: mean survival time, dose: 100.0 mg/kg/injection, schedule: Q01DX009 (ip), vehicle: saline sonified",111 % of control
COC1OC(CO)C2OC(=O)NC2C1O (centres undefined),T/C,[4],98 % of control
same,T/C,[5],94 % of control
same,T/C,"endpoint: mean survival time, dose: 400.0 mg/kg/injection, schedule: Q04DX003 (ip), vehicle: saline",100 % of control
CC(=O)c1cc(Br)cc(Br)c1O,T/C,"endpoint: mean survival time, dose: 100.0 mg/kg/injection, schedule: Q01DX001 (ip), vehicle: saline",96 % of control
same,T/C,"endpoint: mean survival time, dose: 200.0 mg/kg/injection, schedule: Q01DX001 (ip), vehicle: saline",100 % of control
same,T/C,"endpoint: mean survival time, dose: 400.0 mg/kg/injection, schedule: Q01DX001 (ip), vehicle: saline",96 % of control
CCN(CC)CCOc1ccc(C2=CC3(CCCCC3)c3ccccc32)cc1,T/C,"endpoint: mean survival time, dose: 12.5 mg/kg/injection, schedule: Q04DX002 (ip), vehicle: saline with Tween-80",106 % of control
same,T/C,[11],98 % of control
